The values below come from patent US8748421B2, “Triazine compounds as P13 kinase and MTOR inhibitors” (Wyeth LLC, priority 2009, dated 2014).

The target in one test is human SMG-1 (hSMG-1) (Homo sapiens, UniProt Q96Q15). The test can be described thus: hSMG-1 kinase assay (DELFIA). It counts as biochemical.
In the next test the target is PI3K-alpha (Homo sapiens, UniProt P42336). In words: PI3K-alpha fluorescence polarization assay. Particulars: read-out: IC50 PI3Kα. On the technique in general: Polarisation of emitted light reports the rotation of a fluorescent probe.
A further test has as its target PI3K-gamma (Homo sapiens, UniProt P48736). In words: PI3K-gamma fluorescence polarization assay. As to conditions: read-out: IC50 PI3Kγ.
In test [1] the test system is acute lymphoblastic leukemia xenograft. As to conditions: NOS/SCID mouse; cited from earlier work.
Test [2] concerns human tumor xenograft models. Particulars: chronic oral administration, 400 mg/kg; A549, PC-3, WiDr; cited from earlier work.

Chain of PI3K-alpha (P42336 whole entry, species assumed): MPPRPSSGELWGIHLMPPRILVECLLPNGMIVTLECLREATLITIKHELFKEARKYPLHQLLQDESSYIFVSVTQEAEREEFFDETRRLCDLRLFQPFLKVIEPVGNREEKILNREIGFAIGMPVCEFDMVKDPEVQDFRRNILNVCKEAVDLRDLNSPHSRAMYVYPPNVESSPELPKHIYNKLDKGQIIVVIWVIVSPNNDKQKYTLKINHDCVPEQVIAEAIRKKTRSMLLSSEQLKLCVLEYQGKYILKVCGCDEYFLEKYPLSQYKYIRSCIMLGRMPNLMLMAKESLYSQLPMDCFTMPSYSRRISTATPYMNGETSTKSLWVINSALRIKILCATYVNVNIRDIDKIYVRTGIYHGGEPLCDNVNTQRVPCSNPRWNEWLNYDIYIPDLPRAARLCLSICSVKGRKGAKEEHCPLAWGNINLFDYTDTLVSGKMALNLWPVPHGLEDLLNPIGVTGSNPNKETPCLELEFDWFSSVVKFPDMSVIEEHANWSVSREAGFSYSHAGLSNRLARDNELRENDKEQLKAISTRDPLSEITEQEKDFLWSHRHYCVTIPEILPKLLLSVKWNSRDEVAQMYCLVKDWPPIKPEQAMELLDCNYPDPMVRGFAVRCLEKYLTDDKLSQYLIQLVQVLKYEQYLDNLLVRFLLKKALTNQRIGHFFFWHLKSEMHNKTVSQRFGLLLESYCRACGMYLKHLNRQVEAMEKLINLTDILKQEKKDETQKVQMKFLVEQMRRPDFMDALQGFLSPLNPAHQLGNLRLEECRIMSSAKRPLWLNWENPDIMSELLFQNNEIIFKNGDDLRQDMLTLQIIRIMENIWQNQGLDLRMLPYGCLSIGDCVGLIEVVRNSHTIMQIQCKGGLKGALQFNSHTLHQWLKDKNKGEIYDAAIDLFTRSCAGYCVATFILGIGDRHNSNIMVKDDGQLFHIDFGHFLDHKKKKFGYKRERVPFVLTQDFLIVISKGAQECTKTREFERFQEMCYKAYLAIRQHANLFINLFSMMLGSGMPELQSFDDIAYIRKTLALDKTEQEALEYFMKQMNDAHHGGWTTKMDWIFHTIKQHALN
Chain of PI3K-alpha (P27986 whole entry partner, species assumed): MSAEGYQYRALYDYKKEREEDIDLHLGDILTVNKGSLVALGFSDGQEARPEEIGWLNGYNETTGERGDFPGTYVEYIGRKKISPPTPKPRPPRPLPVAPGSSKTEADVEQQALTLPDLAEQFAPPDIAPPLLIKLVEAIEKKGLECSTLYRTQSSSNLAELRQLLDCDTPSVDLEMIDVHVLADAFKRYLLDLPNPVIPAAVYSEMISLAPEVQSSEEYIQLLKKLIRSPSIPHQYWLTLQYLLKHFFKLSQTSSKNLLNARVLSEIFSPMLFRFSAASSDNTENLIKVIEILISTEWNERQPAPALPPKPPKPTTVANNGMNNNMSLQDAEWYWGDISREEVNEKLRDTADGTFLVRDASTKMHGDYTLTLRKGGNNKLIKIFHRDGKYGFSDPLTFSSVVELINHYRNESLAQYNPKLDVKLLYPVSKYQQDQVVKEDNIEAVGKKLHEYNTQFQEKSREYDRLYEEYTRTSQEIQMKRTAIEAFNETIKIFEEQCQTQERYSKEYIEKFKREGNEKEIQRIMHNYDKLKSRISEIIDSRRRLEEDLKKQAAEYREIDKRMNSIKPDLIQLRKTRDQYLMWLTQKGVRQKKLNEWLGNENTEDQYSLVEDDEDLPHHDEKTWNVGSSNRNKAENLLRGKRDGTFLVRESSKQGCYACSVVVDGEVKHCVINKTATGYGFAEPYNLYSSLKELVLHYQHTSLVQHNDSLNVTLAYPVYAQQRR
Chain of PI3K-gamma (P48736 whole entry, species assumed): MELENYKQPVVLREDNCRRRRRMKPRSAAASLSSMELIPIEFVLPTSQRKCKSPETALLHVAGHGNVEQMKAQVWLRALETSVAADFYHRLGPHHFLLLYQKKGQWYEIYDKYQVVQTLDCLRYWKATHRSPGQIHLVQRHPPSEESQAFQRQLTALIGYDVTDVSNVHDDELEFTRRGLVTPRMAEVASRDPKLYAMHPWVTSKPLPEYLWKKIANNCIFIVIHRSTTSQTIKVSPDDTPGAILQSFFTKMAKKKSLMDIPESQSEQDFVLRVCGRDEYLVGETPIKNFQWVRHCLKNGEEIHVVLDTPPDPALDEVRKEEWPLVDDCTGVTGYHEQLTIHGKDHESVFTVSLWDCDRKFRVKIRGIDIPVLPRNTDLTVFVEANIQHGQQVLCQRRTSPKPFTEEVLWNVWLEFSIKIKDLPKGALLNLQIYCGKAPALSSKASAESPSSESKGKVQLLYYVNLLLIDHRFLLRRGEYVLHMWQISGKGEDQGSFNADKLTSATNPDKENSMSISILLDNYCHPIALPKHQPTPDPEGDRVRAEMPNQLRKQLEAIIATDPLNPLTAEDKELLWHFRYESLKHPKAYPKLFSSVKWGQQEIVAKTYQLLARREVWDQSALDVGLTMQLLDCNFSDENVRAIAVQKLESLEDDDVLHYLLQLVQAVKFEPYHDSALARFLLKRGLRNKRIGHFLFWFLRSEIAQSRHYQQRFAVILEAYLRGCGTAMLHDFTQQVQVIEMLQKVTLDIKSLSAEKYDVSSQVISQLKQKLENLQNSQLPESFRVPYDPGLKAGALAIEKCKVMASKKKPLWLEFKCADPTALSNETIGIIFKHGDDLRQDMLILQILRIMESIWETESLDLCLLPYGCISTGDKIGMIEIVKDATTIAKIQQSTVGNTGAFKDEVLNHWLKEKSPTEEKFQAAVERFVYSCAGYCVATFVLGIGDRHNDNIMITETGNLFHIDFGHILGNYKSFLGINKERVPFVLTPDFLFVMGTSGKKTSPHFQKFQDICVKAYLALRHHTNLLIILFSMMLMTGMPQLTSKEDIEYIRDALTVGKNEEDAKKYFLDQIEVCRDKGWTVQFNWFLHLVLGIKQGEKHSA

On to `CNC(=O)Nc1ccc(-c2nc(-c3ccc(NC(=O)Nc4ccc(C(N)=O)cc4)cc3)nc(N3CCOCC3)n2)cc1` [Example 462, 4-({[4-(4-{4-[(methylcarbamoyl)amino]phenyl}-6-morpholin-4-yl-1,3,5-triazin-2-yl)phenyl]carbamoyl}amino)benzamide], for which the IC50 (as a rule, the concentration at which inhibition is half-maximal) on human SMG-1 (hSMG-1) turned out to be 1 nM. As for `C[C@@H]1CN(C(=O)c2ccc(NC(=O)Nc3ccc(-c4nc(N5CCOCC5)nc(N5CCOCC5)n4)cc3)cc2)CCN1C` [Example 850, 1-(4-{[(3R)-3,4-dimethylpiperazin-1-yl]carbonyl}phenyl)-3-{4-[4,6-di(morpholin-4-yl)-1,3,5-triazin-2-yl]phenyl}urea], the IC50 is 0.65 nM on PI3K-alpha and 6.1 nM at PI3K-gamma. Turning to `C[C@@H]1CN(C(=O)c2ccc(NC(=O)Nc3ccc(-c4nc(N5CCOCC5)nc(N5CCOCC5)n4)cc3)cc2)CCN1C1CCC1` [Example 851, 1-(4-{[(3R)-4-cyclobutyl-3-methylpiperazin-1-yl]carbonyl}phenyl)-3-{4-[4,6-di(morpholin-4-yl)-1,3,5-triazin-2-yl]phenyl}urea], the IC50 came to 0.85 nM on PI3K-alpha and 5.6 nM on PI3K-gamma. The matching figures for `CC(C)N1CCN(C(=O)c2ccc(NC(=O)Nc3ccc(-c4nc(N5CCOCC5)nc(N5CCOCC5)n4)cc3)cc2)C[C@H]1C` [Example 852, 1-{4-[4,6-di(morpholin-4-yl)-1,3,5-triazin-2-yl]phenyl}-3-(4-{[(3R)-3-methyl-4-(propan-2-yl)piperazin-1-yl]carbonyl}phenyl)urea]: 0.4 nM and 5.55 nM. For the compound `C[C@H]1CN(C(=O)c2ccc(NC(=O)Nc3ccc(-c4nc(N5CCOCC5)nc(N5CCOCC5)n4)cc3)cc2)CCN1` [Example 853, 1-{4-[4,6-di(morpholin-4-yl)-1,3,5-triazin-2-yl]phenyl}-3-(4-{[(3S)-3-methylpiperazin-1-yl]carbonyl}phenyl)urea], the results for the IC50 at PI3K-alpha and at PI3K-gamma were 0.3 nM and 5.05 nM, respectively. `CC(C)N1CCCN(c2nc(-c3ccc(NC(=O)Nc4ccc(C(=O)N(C)CCN(C)C)cc4)cc3)nc(N3CCOC[C@@H]3C)n2)CC1` [Example 854, N-[2-(dimethylamino)ethyl]-N-methyl-4-{[(4-{4-[(3S)-3-methylmorpholin-4-yl]-6-[4-(propan-2-yl)-1,4-diazepan-1-yl]-1,3,5-triazin-2-yl}phenyl)carbamoyl]amino}benzamide]: the IC50 on PI3K-alpha stood at 8.84 nM; at PI3K-gamma it was 164 nM.

Turning to `CC(C)N1CCCN(c2nc(-c3ccc(NC(=O)Nc4ccc(C(=O)N5CCN(C)CC5)cc4)cc3)nc(N3CCOC[C@@H]3C)n2)CC1` [Example 855, 1-(4-{4-[(3S)-3-methylmorpholin-4-yl]-6-[4-(propan-2-yl)-1,4-diazepan-1-yl]-1,3,5-triazin-2-yl}phenyl)-3-{4-[(4-methylpiperazin-1-yl)carbonyl]phenyl}urea], the IC50 came to 54 nM on PI3K-alpha and 864 nM on PI3K-gamma. Take `CC(C)N1CCCN(c2nc(-c3ccc(NC(=O)Nc4ccc(C(=O)N5CC[C@H](N(C)C)C5)cc4)cc3)nc(N3CCOC[C@@H]3C)n2)CC1` [Example 856, 1-(4-{[(3S)-3-(dimethylamino)pyrrolidin-1-yl]carbonyl}phenyl)-3-(4-{4-[(3S)-3-methylmorpholin-4-yl]-6-[4-(propan-2-yl)-1,4-diazepan-1-yl]-1,3,5-triazin-2-yl}phenyl)urea]: the IC50 on PI3K-alpha amounted to 28.5 nM; on PI3K-gamma, 532 nM. The corresponding values for `CC(C)N1CCCN(c2nc(-c3ccc(NC(=O)Nc4ccc(C(=O)NCCCN(C)C)cc4)cc3)nc(N3CCOCC3)n2)CC1` [Example 857, N-[3-(dimethylamino)propyl]-4-{[(4-{4-(morpholin-4-yl)-6-[4-(propan-2-yl)-1,4-diazepan-1-yl]-1,3,5-triazin-2-yl}phenyl)carbamoyl]amino}benzamide] are 10 nM and 146 nM. The corresponding values for `CC(C)N1CCCN(c2nc(-c3ccc(NC(=O)Nc4ccc(C(=O)N(C)CCN(C)C)cc4)cc3)nc(N3CCOCC3)n2)CC1` [Example 858, N-[2-(dimethylamino)ethyl]-N-methyl-4-{[(4-{4-(morpholin-4-yl)-6-[4-(propan-2-yl)-1,4-diazepan-1-yl]-1,3,5-triazin-2-yl}phenyl)carbamoyl]amino}benzamide] are 5 nM and 134 nM. The corresponding values for `CC(C)N1CCCN(c2nc(-c3ccc(NC(=O)Nc4ccc(C(=O)N5CCOCC5)cc4)cc3)nc(N3CCOCC3)n2)CC1` [Example 859, 1-[4-(morpholin-4-ylcarbonyl)phenyl]-3-(4-{4-(morpholin-4-yl)-6-[4-(propan-2-yl)-1,4-diazepan-1-yl]-1,3,5-triazin-2-yl}phenyl)urea] are 17.9 nM and 240 nM. `COCCNC(=O)c1ccc(NC(=O)Nc2ccc(-c3nc(N4CCOCC4)nc(N4CCCN(C(C)C)CC4)n3)cc2)cc1` [Example 860, N-(2-methoxyethyl)-4-{[(4-{4-(morpholin-4-yl)-6-[4-(propan-2-yl)-1,4-diazepan-1-yl]-1,3,5-triazin-2-yl}phenyl)carbamoyl]amino}benzamide]: the IC50 on PI3K-alpha turned out to be 57 nM; on PI3K-gamma, 434 nM. On to `CC(C)N1CCCN(c2nc(-c3ccc(NC(=O)Nc4ccc(C(=O)N5CCCNCC5)cc4)cc3)nc(N3CCOCC3)n2)CC1` [Example 861, 1-[4-(1,4-diazepan-1-ylcarbonyl)phenyl]-3-(4-{4-(morpholin-4-yl)-6-[4-(propan-2-yl)-1,4-diazepan-1-yl]-1,3,5-triazin-2-yl}phenyl)urea], for which the IC50 turned out to be 4 nM on PI3K-alpha and 56 nM on PI3K-gamma.

As to `CC(C)N1CCCN(C(=O)c2ccc(NC(=O)Nc3ccc(-c4nc(N5CCOCC5)nc(N5CCCN(C(C)C)CC5)n4)cc3)cc2)CC1` [Example 862, 1-(4-{4-(morpholin-4-yl)-6-[4-(propan-2-yl)-1,4-diazepan-1-yl]-1,3,5-triazin-2-yl}phenyl)-3-(4-{[4-(propan-2-yl)-1,4-diazepan-1-yl]carbonyl}phenyl)urea], the results for the IC50 on PI3K-alpha and on PI3K-gamma were 23.5 nM and 154 nM, respectively. As for `C[C@H]1CN(C(=O)c2ccc(NC(=O)Nc3ccc(-c4nc(N5CCOCC5)nc(N5CCOCC5)n4)cc3)cc2)CCN1C1CCC1` [Example 863, 1-(4-{[(3S)-4-cyclobutyl-3-methylpiperazin-1-yl]carbonyl}phenyl)-3-{4-[4,6-di(morpholin-4-yl)-1,3,5-triazin-2-yl]phenyl}urea], the IC50 was 2.1 nM at PI3K-alpha and 8 nM at PI3K-gamma. Take `C[C@H]1CN(C(=O)c2ccc(NC(=O)Nc3ccc(-c4nc(N5CCOCC5)nc(N5CCOCC5)n4)cc3)cc2)CCN1C` [Example 864, 1-(4-{[(3S)-3,4-dimethylpiperazin-1-yl]carbonyl}phenyl)-3-{4-[4,6-di(morpholin-4-yl)-1,3,5-triazin-2-yl]phenyl}urea]: the IC50 at PI3K-alpha was 1 nM; at PI3K-gamma, 7.5 nM. The matching figures for `CN1CCN(C(=O)c2ccc(NC(=O)Nc3ccc(-c4nc(C5CCOCC5)nc(N5CCOCC5)n4)cc3)cc2)CC1(C)C` [Example 865, 1-{4-[4-(morpholin-4-yl)-6-(tetrahydro-2H-pyran-4-yl)-1,3,5-triazin-2-yl]phenyl}-3-{4-[(3,3,4-trimethylpiperazin-1-yl)carbonyl]phenyl}urea]: 2.45 nM and 12 nM. Take `C[C@H]1CN(C(=O)c2ccc(NC(=O)Nc3ccc(-c4nc(C5CCOCC5)nc(N5CCOCC5)n4)cc3)cc2)CCN1C` [Example 866, 1-(4-{[(3S)-3,4-dimethylpiperazin-1-yl]carbonyl}phenyl)-3-{4-[4-(morpholin-4-yl)-6-(tetrahydro-2H-pyran-4-yl)-1,3,5-triazin-2-yl]phenyl}urea]: the IC50 on PI3K-alpha is 1.6 nM; at PI3K-gamma, 16.5 nM.

Regarding `C[C@H]1CN(C(=O)c2ccc(NC(=O)Nc3ccc(-c4nc(C5CCOCC5)nc(N5CCOCC5)n4)cc3)cc2)CCN1` [Example 867, 1-(4-{[(3S)-3-methylpiperazin-1-yl]carbonyl}phenyl)-3-{4-[4-(morpholin-4-yl)-6-(tetrahydro-2H-pyran-4-yl)-1,3,5-triazin-2-yl]phenyl}urea], the IC50 on PI3K-alpha worked out at 0.4 nM; on PI3K-gamma it was 7 nM. For the compound `CN(C)[C@@H]1CCN(C(=O)c2ccc(NC(=O)Nc3ccc(-c4nc(C5CCOCC5)nc(N5CCOCC5)n4)cc3)cc2)C1` [Example 868, 1-(4-{[(3R)-3-(dimethylamino)pyrrolidin-1-yl]carbonyl}phenyl)-3-{4-[4-morpholin-4-yl-6-(tetrahydro-2H-pyran-4-yl)-1,3,5-triazin-2-yl]phenyl}urea], the 50% inhibitory concentration (IC50) at PI3K-alpha came to 0.65 nM; at PI3K-gamma, 4.5 nM. The corresponding values for `CN(C)[C@H]1CCN(C(=O)c2ccc(NC(=O)Nc3ccc(-c4nc(C5CCOCC5)nc(N5CCOCC5)n4)cc3)cc2)C1` [Example 869, 1-(4-{[(3S)-3-(dimethylamino)pyrrolidin-1-yl]carbonyl}phenyl)-3-{4-[4-morpholin-4-yl-6-(tetrahydro-2H-pyran-4-yl)-1,3,5-triazin-2-yl]phenyl}urea] are 0.6 nM and 6.5 nM. Take `CO[C@H]1C[C@@H]2CC[C@@H](C)[C@@](O)(O2)C(=O)C(=O)N2CCCC[C@H]2C(=O)O[C@H]([C@H](C)C[C@@H]2CC[C@@H](OC(=O)C(C)(CO)CO)[C@H](OC)C2)CC(=O)[C@H](C)/C=C(\C)[C@@H](O)[C@@H](OC)C(=O)[C@H](C)C[C@H](C)/C=C/C=C/C=C/1C` [Torisel]: the “activity in xenograft mouse model of acute lymphoblastic leukemia” value in test [1] is on record as “active”. Regarding `FC(F)c1nc2ccccc2n1-c1nc(N2CCOCC2)nc(N2CCOCC2)n1` [ZSTK474, 2-(2-difluoromethylbenzoimidazol-1-yl)-4,6-dimorpholino-1,3,5-triazine], in test [2], the “tumor growth inhibition in mouse human xenograft cancer models” value is reported as “completely inhibited growth”.
